Assays:
Format in all cases: in vivo
Monochoria vaginalis = assay: Test for Herbicidal Effect in Flooding Treatment (#1), MONVA; conditions: for MONVA #1 herbicidal effect (growth inhibition grade): flooding treatment at seeding, dose 2 kg/ha, visual observation on day 21; for MONVA #1 herbicidal effect (growth inhibition rating 0-5): flooding treatment #1
Procedure, shortened: (§1)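 Visual scores from 0 (<10% inhibition) to 5 (≥90% or complete withering) were taken 21 days after treatment of glasshouse-grown plants. Seeds were sown in soil flooded for 24 h beforehand, and compound was applied dropwise onto the surface at 2 kg/ha as an acetone solution diluted in water with Tween 80.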

[1] = test system: Echinochloa crus-galli (L.) P. Beauv. var. formosensis Ohwi; assay: Test for Herbicidal Effect in Flooding Treatment (#2), ECHDG at 2-2.5 leaf stage; conditions: for ECHDG (2-2.5L) #2 herbicidal effect (growth inhibition grade): flooding treatment at 2-2.5 leaf stage, dose 0.2 kg/ha, visual observation on day 21; for ECHDG (2-2.5L) #2 herbicidal effect (growth inhibition rating 0-5): flooding treatment #2, 2-2.5 leaf stage
Procedure, shortened: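 Flooded muddy soil was seeded with the weed, and at 2–2.5 leaf stage compound in acetone/Tween 80 water was dropped on the water surface at 0.2 kg/ha. Plants were kept in a glasshouse and scored visually on day 21 from 0 (<10% growth inhibition) to 5 (≥90% or complete withering).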

Scirpus juncoides = assay: Test for Herbicidal Effect in Flooding Treatment (#1), SCIJU; conditions: for SCIJU #1 herbicidal effect (growth inhibition grade): flooding treatment at seeding, dose 2 kg/ha, visual observation on day 21; for SCIJU #1 herbicidal effect (growth inhibition rating 0-5): flooding treatment #1
Procedure, shortened: as §1

[2] = test system: Echinochloa crus-galli (L.) P. Beauv. var. formosensis Ohwi; assay: Test for Herbicidal Effect in Flooding Treatment (#1), ECHDG; conditions: for ECHDG #1 herbicidal effect (growth inhibition grade): flooding treatment at seeding, dose 2 kg/ha, visual observation on day 21; for ECHDG #1 herbicidal effect (growth inhibition rating 0-5): flooding treatment #1
Procedure, shortened: as §1

| Structure (SMILES) | MONVA #1 herbicidal effect (growth inhibition grade) (Monochoria vaginalis) | ECHDG (2-2.5L) #2 herbicidal effect (growth inhibition grade) [1] | SCIJU #1 herbicidal effect (growth inhibition grade) (Scirpus juncoides) | ECHDG #1 herbicidal effect (growth inhibition grade) [2] | MONVA #1 herbicidal effect (growth inhibition rating 0-5) (Monochoria vaginalis) | ECHDG (2-2.5L) #2 herbicidal effect (growth inhibition rating 0-5) [1] | SCIJU #1 herbicidal effect (growth inhibition rating 0-5) (Scirpus juncoides) | ECHDG #1 herbicidal effect (growth inhibition rating 0-5) [2] |
| --- | --- | --- | --- | --- | --- | --- | --- | --- |
| COc1cccc(C(F)(F)F)c1CS(=O)(=O)c1ncc(Cl)s1 [Compound 1C-7] | 5 (Growth inhibition effect is equal to or greater than 90%, or complete withering is achieved) | 5 (Growth inhibition effect is equal to or greater than 90%, or complete withering is achieved) | 5 (Growth inhibition effect is equal to or greater than 90%, or complete withering is achieved) | 5 (Growth inhibition effect is equal to or greater than 90%, or complete withering is achieved) | – | – | – | – |
| O=S(=O)(Cc1c(F)cccc1OCCCC(F)(F)F)c1ncc(Cl)s1 [Compound 1C-63] | 5 (Growth inhibition effect is equal to or greater than 90%, or complete withering is achieved) | 3 (Growth inhibition effect equal to or greater than 50%, and less than 70%) | 5 (Growth inhibition effect is equal to or greater than 90%, or complete withering is achieved) | 5 (Growth inhibition effect is equal to or greater than 90%, or complete withering is achieved) | – | – | – | – |
| O=S(=O)(Cc1c(F)cccc1OCC(F)F)c1ncc(Cl)s1 [Compound 1C-50] | 5 (Growth inhibition effect is equal to or greater than 90%, or complete withering is achieved) | 5 (Growth inhibition effect is equal to or greater than 90%, or complete withering is achieved) | 5 (Growth inhibition effect is equal to or greater than 90%, or complete withering is achieved) | 5 (Growth inhibition effect is equal to or greater than 90%, or complete withering is achieved) | – | – | – | – |
| CC(c1c(F)cccc1OCC(F)(F)C(F)F)S(=O)(=O)c1ncc(Cl)s1 (centres unmarked) [Compound 1C-148] | 5 (Growth inhibition effect is equal to or greater than 90%, or complete withering is achieved) | 5 (Growth inhibition effect is equal to or greater than 90%, or complete withering is achieved) | 5 (Growth inhibition effect is equal to or greater than 90%, or complete withering is achieved) | 5 (Growth inhibition effect is equal to or greater than 90%, or complete withering is achieved) | – | – | – | – |
| [O-][S+](Cc1c(Cl)cccc1OC(F)(F)C(F)(F)F)c1ncc(Br)s1 (centres unmarked) [Compound 1B-24] | – | – | – | – | 5 (Growth inhibition effect is equal to or greater than 90%, or complete withering is achieved) | 5 (Growth inhibition effect is equal to or greater than 90%, or complete withering is achieved) | 5 (Growth inhibition effect is equal to or greater than 90%, or complete withering is achieved) | 5 (Growth inhibition effect is equal to or greater than 90%, or complete withering is achieved) |
| CC(c1c(F)cccc1OCCC(F)(F)F)S(=O)(=O)c1ncc(Cl)s1 (racemic) [Compound 1C-149] | 5 (Growth inhibition effect is equal to or greater than 90%, or complete withering is achieved) | 4 (Growth inhibition effect is equal to or greater than 70%, and less than 90%) | 5 (Growth inhibition effect is equal to or greater than 90%, or complete withering is achieved) | 5 (Growth inhibition effect is equal to or greater than 90%, or complete withering is achieved) | – | – | – | – |
| [2H]C([2H])(c1c(Cl)ccc(OC)c1F)S(=O)(=O)c1ncc(Cl)s1 [Compound 1C-136] | 5 (Growth inhibition effect is equal to or greater than 90%, or complete withering is achieved) | 5 (Growth inhibition effect is equal to or greater than 90%, or complete withering is achieved) | 5 (Growth inhibition effect is equal to or greater than 90%, or complete withering is achieved) | 5 (Growth inhibition effect is equal to or greater than 90%, or complete withering is achieved) | – | – | – | – |
| CCOc1ccc(Cl)cc1C(F)(F)S(=O)(=O)c1ncc(Cl)s1 [Compound 1C-138] | 5 (Growth inhibition effect is equal to or greater than 90%, or complete withering is achieved) | 3 (Growth inhibition effect equal to or greater than 50%, and less than 70%) | 5 (Growth inhibition effect is equal to or greater than 90%, or complete withering is achieved) | 5 (Growth inhibition effect is equal to or greater than 90%, or complete withering is achieved) | – | – | – | – |
| O=S(=O)(Cc1c(Cl)cccc1OCC(F)F)c1ncc(Cl)s1 [Compound 1C-51] | 5 (Growth inhibition effect is equal to or greater than 90%, or complete withering is achieved) | 5 (Growth inhibition effect is equal to or greater than 90%, or complete withering is achieved) | 5 (Growth inhibition effect is equal to or greater than 90%, or complete withering is achieved) | 5 (Growth inhibition effect is equal to or greater than 90%, or complete withering is achieved) | – | – | – | – |
| O=S(=O)(Cc1c(Cl)cccc1OCC(F)(F)F)c1ncc(Cl)s1 [Compound 1C-55] | 5 (Growth inhibition effect is equal to or greater than 90%, or complete withering is achieved) | 5 (Growth inhibition effect is equal to or greater than 90%, or complete withering is achieved) | 5 (Growth inhibition effect is equal to or greater than 90%, or complete withering is achieved) | 5 (Growth inhibition effect is equal to or greater than 90%, or complete withering is achieved) | – | – | – | – |
| CC(c1c(F)cccc1OC(F)F)[S+]([O-])c1ncc(Cl)s1 (centres unmarked) [Compound 1B-16] | – | – | – | – | 5 (Growth inhibition effect is equal to or greater than 90%, or complete withering is achieved) | 3 (Growth inhibition effect equal to or greater than 50%, and less than 70%) | 5 (Growth inhibition effect is equal to or greater than 90%, or complete withering is achieved) | 5 (Growth inhibition effect is equal to or greater than 90%, or complete withering is achieved) |
